Measurements reported in patent publication US4072574A, “System for in vitro assay for mutagenicity and/or carcinogenicity of chemicals or other exogenous agents” (priority 1976, dated 1978).

Key:
[1] = Fidelity of in vitro DNA synthesis (error frequency) with AMV DNA polymerase copying synthetic polynucleotide templates; conditions: amv dna polymerase
Description: (§1) In this invention, the ability of carcinogens to decrease the fidelity of in vitro DNA synthesis will be used to screen for carcinogenic or mutagenic agents. The system uses synthetic polynucleotides of defined composition which may be copied in the test tubes with procaryotic, eucaryotic or viral DNA polymerases. The use of synthetic polynucleotides of defined composition allows the measurement of the simultaneous incorporation of the correct, complementary nucleotide and an incorrect, non-complementary nucleotide. The correct nucleotide is labeled with [α-^32 P] of low specific activity and the incorrect nucleotide is labeled with [^3 H] of high specific activity. Through this double labeled reaction it is possible to determine the simultaneous incorporation of both nucleotides and thus to determine an error frequency. The error frequency may be defined as the ratio of the incorrect/correct nucleotide incorporation. Agents which increase this error frequency may be scored as positive. […] Agents which score positive would be checked using different templates to underscore the positive results. In this system different polymerases will be used as well as different templates. One would expect that most carcinogens would change the fidelity of DNA synthesis with different polymerases as well as with different templates though this need not be the case.
(§2) Each assay will consist of a polymerase, a polynucleotide template that only contains one or two nucleotides, a complementary nucleotide and a non-complementary nucleotide as well as magnesium. Both of the nucleotides will be labeled by radioactive precursors and the ratio between the two is to be used for a measure of error frequency in the system. In instances where a template requires two complementary nucleotides, only one will be radioactively labeled.
(§3) Reactions (total volume 0.05 ml) which measured complementary nucleotide incorporation contained 50 mM Tris-HCL (pH 8.0), 20 mM KCl, 5 mM dithiothreitol, 5 mM MgCl2, 2μg BSA, […] [α-^32 P] -dTTP (60 dpm/pmole), 1μg poly (A).oligo (dT) (1:1.5 mass ratio), and 0.45 μg of AMV DNA polymerase. For simultaneous quantitation of complementary and non-complementary nucleotide incorporation each reaction was modified to contain 26μM [α-^32 P]dTTP (12 dpm/pmole) and 23μM [^3 H]-dCTP (50,000 dpm/pmole). […] Metals were added directly to the reaction mixture as aqueous solutions of chloride salts. All reactions were incubated for 60 min. at 37° C. Incorporation of radioactive nucleotides into an acid-insoluble and alkali-resistant product was determined by using the precipitation-solubilization procedure as described by Battula and Loeb. All experiments were performed in triplicate and the averages were determined.
(§4) In order to determine the effect of different metals on the accuracy of DNA replication, metal cations were added as chloride salts directly to the polymerase reaction. In these experiments, poly (A).oligo (dT) was the template-primer and the simultaneous incorporation of complementary nucleotide, [α-^32 P]-dTMP, and the non-complementery nucleotide, [^3 H]-dCMP, was determined.
(§5) The effect of metal salts on the fidelity of DNA synthesis was examined by testing each of the metal salts at a minimum of seven different concentrations.

AMV DNA polymerase [2] = experiment: as above; conditions: for Class: Table 1, classes 1-3 not defined; for Complementary Nucleotide (pmoles dTMP) / Non-Complementary Nucleotide (pmoles dCMP) / Error Frequency / effect on error frequency (in words): poly (A).oligo (dT); for Error Frequency: dCMP/dTMP; for effect on error frequency (in words): dTMP complementary, dCMP non-complementary
Description: as §1, §2, §3, §4, §5

AMV DNA polymerase [3] = experiment: Metal requirements for catalysis by AMV DNA polymerase; type: biochemical, avian myeloblastosis virus; conditions: poly (A).oligo (dT); for ability to substitute for Mg^2+ as added divalent cation: absence of Mg^2+, Be^2+ up to 15 mM
Protocol: All known DNA polymerases require either Mg^2+ or Mn^2+ as an added divalent cation for activity. AMV DNA polymerase used Mg^2+ as an added divalent cation and the maximum rate of polymerization with poly (A).oligo (dT) was attained at 5 mM Mg^2+. […] Thymidine monophosphate incorporation with Be^2+ was less than 0.3% of that obtained with 5 mM Mg^2+.

[4] = known status of the compound; cited from earlier work
[5] = 10 mM added cation + Mg^2+ 5 mM

SMILES: CC(=O)O [Ba(C2 H3 O2)2]
- fold induction at 1 h ([1]; poly [d(a-t)]): 0.94
- Class (AMV DNA polymerase [2]; template poly [d(A-T)]): 2
- Metal Concentration which yielded the largest observed change in error rate (AMV DNA polymerase [2]; template poly [d(A-T)]): 10 mM

SMILES: [Ba+2].[Cl-].[Cl-] [BaCl2]
- ability to substitute for Mg^2+ as added divalent cation (AMV DNA polymerase [3]): unable to substitute for Mg^2+
- Carcinogen or Mutagen [4]: -
- Complementary Nucleotide (pmoles dTMP) (AMV DNA polymerase [2]; 2 mM added cation + Mg^2+ 5 mM): 240 pmol
- Non-Complementary Nucleotide (pmoles dCMP) (AMV DNA polymerase [2]; 2 mM added cation + Mg^2+ 5 mM): 0.42 pmol
- Error Frequency (AMV DNA polymerase [2]; 2 mM added cation + Mg^2+ 5 mM): 1/578
- Complementary Nucleotide (pmoles dTMP) (AMV DNA polymerase [2]; 6 mM added cation + Mg^2+ 5 mM): 243 pmol
- Non-Complementary Nucleotide (pmoles dCMP) (AMV DNA polymerase [2]; 6 mM added cation + Mg^2+ 5 mM): 0.46 pmol
- Error Frequency (AMV DNA polymerase [2]; 6 mM added cation + Mg^2+ 5 mM): 1/528
- Complementary Nucleotide (pmoles dTMP) (AMV DNA polymerase [2]; [5]): 317 pmol
- Non-Complementary Nucleotide (pmoles dCMP) (AMV DNA polymerase [2]; [5]): 0.61 pmol
- Error Frequency (AMV DNA polymerase [2]; [5]): 1/520
- Class (AMV DNA polymerase [2]; template poly (A).oligo (dT)): 2
- effect on error frequency (in words) (AMV DNA polymerase [2]): did not affect either the incorporation of the complementary or non-complementary nucleotides
- Metal Concentration which yielded the largest observed change in error rate (AMV DNA polymerase [2]; template poly (A).oligo (dT)): 10 mM

SMILES: [Ca+2].[Cl-].[Cl-] [CaCl2]
- ability to substitute for Mg^2+ as added divalent cation (AMV DNA polymerase [3]): unable to substitute for Mg^2+
- Carcinogen or Mutagen [4]: -
- Complementary Nucleotide (pmoles dTMP) (AMV DNA polymerase [2]; 1 mM added cation + Mg^2+ 5 mM): 704 pmol
- Non-Complementary Nucleotide (pmoles dCMP) (AMV DNA polymerase [2]; 1 mM added cation + Mg^2+ 5 mM): 0.70 pmol
- Error Frequency (AMV DNA polymerase [2]; 1 mM added cation + Mg^2+ 5 mM): 1/1005
- Complementary Nucleotide (pmoles dTMP) (AMV DNA polymerase [2]; 2 mM added cation + Mg^2+ 5 mM): 129 pmol
- Non-Complementary Nucleotide (pmoles dCMP) (AMV DNA polymerase [2]; 2 mM added cation + Mg^2+ 5 mM): 0.19 pmol
- Error Frequency (AMV DNA polymerase [2]; 2 mM added cation + Mg^2+ 5 mM): 1/681
- Complementary Nucleotide (pmoles dTMP) (AMV DNA polymerase [2]; 5 mM added cation + Mg^2+ 5 mM): 55 pmol
- Non-Complementary Nucleotide (pmoles dCMP) (AMV DNA polymerase [2]; 5 mM added cation + Mg^2+ 5 mM): 0.083 pmol
- Error Frequency (AMV DNA polymerase [2]; 5 mM added cation + Mg^2+ 5 mM): 1/665
- Class (AMV DNA polymerase [2]; template poly (A).oligo (dT)): 2
- effect on error frequency (in words) (AMV DNA polymerase [2]): did not alter the error frequency
- Metal Concentration which yielded the largest observed change in error rate (AMV DNA polymerase [2]; template poly (A).oligo (dT)): 5 mM

SMILES: [Cl-].[Cl-].[Mg+2] [Mg^2+, magnesium chloride]
- Mg^2+ concentration at which the maximum rate of polymerization was attained (AMV DNA polymerase [3]): 5 mM
- Complementary Nucleotide (pmoles dTMP) (AMV DNA polymerase [2]; Mg^2+ 2 mM alone): 320 pmol
- Non-Complementary Nucleotide (pmoles dCMP) (AMV DNA polymerase [2]; Mg^2+ 2 mM alone): 0.56 pmol
- Error Frequency (AMV DNA polymerase [2]; Mg^2+ 2 mM alone): 1/571
- Complementary Nucleotide (pmoles dTMP) (AMV DNA polymerase [2]; Mg^2+ 5 mM alone): 600 pmol
- Non-Complementary Nucleotide (pmoles dCMP) (AMV DNA polymerase [2]; Mg^2+ 5 mM alone): 1.16 pmol
- Error Frequency (AMV DNA polymerase [2]; Mg^2+ 5 mM alone): 1/517
- Complementary Nucleotide (pmoles dTMP) (AMV DNA polymerase [2]; Mg^2+ 8 mM alone): 520 pmol
- Non-Complementary Nucleotide (pmoles dCMP) (AMV DNA polymerase [2]; Mg^2+ 8 mM alone): 1.00 pmol
- Error Frequency (AMV DNA polymerase [2]; Mg^2+ 8 mM alone): 1/520
- Complementary Nucleotide (pmoles dTMP) (AMV DNA polymerase [2]; Mg^2+ 15 mM alone): 240 pmol
- Non-Complementary Nucleotide (pmoles dCMP) (AMV DNA polymerase [2]; Mg^2+ 15 mM alone): 0.90 pmol
- Error Frequency (AMV DNA polymerase [2]; Mg^2+ 15 mM alone): 1/600
- effect on error frequency (in words) (AMV DNA polymerase [2]): invariant with respect to Mg^2+ concentration

SMILES: O=CO [NH4 COOH]
- fold induction at 1 h ([1]; poly [d(a-t)]): 0.83
- Class (AMV DNA polymerase [2]; template poly [d(A-T)]): 2
- Metal Concentration which yielded the largest observed change in error rate (AMV DNA polymerase [2]; template poly [d(A-T)]): 100 mM

SMILES: CC(=O)O [NaC2 H3 O2]
- Carcinogen or Mutagen [4]: -
- fold induction at 1 h ([1]; poly(c).oligo(dg)): 1
- Class (AMV DNA polymerase [2]; template poly (C).oligo (dG)): 2
- Metal Concentration which yielded the largest observed change in error rate (AMV DNA polymerase [2]; template poly (C).oligo (dG)): 100 mM

SMILES: O=C(O)O [NaHCO3]
- Carcinogen or Mutagen [4]: -
- fold induction at 1 h ([1]; poly [d(a-t)]): 0.96
- Class (AMV DNA polymerase [2]; template poly [d(A-T)]): 2
- Metal Concentration which yielded the largest observed change in error rate (AMV DNA polymerase [2]; template poly [d(A-T)]): 40 mM

SMILES: [Cl-].[Cl-].[Sr+2] [SrCl2]
- Carcinogen or Mutagen [4]: -
- Complementary Nucleotide (pmoles dTMP) (AMV DNA polymerase [2]; 4 mM added cation + Mg^2+ 5 mM): 798 pmol
- Non-Complementary Nucleotide (pmoles dCMP) (AMV DNA polymerase [2]; 4 mM added cation + Mg^2+ 5 mM): 0.86 pmol
- Error Frequency (AMV DNA polymerase [2]; 4 mM added cation + Mg^2+ 5 mM): 1/927
- Complementary Nucleotide (pmoles dTMP) (AMV DNA polymerase [2]; 6 mM added cation + Mg^2+ 5 mM): 936 pmol
- Non-Complementary Nucleotide (pmoles dCMP) (AMV DNA polymerase [2]; 6 mM added cation + Mg^2+ 5 mM): 0.96 pmol
- Error Frequency (AMV DNA polymerase [2]; 6 mM added cation + Mg^2+ 5 mM): 1/975
- Complementary Nucleotide (pmoles dTMP) (AMV DNA polymerase [2]; [5]): 845 pmol
- Non-Complementary Nucleotide (pmoles dCMP) (AMV DNA polymerase [2]; [5]): 0.86 pmol
- Error Frequency (AMV DNA polymerase [2]; [5]): 1/982
- Class (AMV DNA polymerase [2]; template poly (A).oligo (dT)): 3
- effect on error frequency (in words) (AMV DNA polymerase [2]): did not affect either the incorporation of the complementary or non-complementary nucleotides
- Metal Concentration which yielded the largest observed change in error rate (AMV DNA polymerase [2]; template poly (A).oligo (dT)): 10 mM

SMILES: [Cl-].[Cl-].[Zn+2] [ZnCl2]
- Carcinogen or Mutagen [4]: ±
- Class (AMV DNA polymerase [2]; template poly [d(A-T)]): 2
- Metal Concentration which yielded the largest observed change in error rate (AMV DNA polymerase [2]; template poly [d(A-T)]): 0.4 mM
